Here are results for three compounds from patent US10870647B2, “Imidazopyridine derivative, method for preparing same, and pharmaceutical composition containing same as active ingredient for preventing or treating cancer” (DAEGU-GYEONGBUK MEDICAL INNOVATION FOUNDATION, priority 2016, dated 2020).

Like-named read-outs stand apart in the source and are kept apart here.

What all share (test): Kinase selectivity, scanMAX Kinase assay panel (DiscoverX), % control at 1 uM
Holding throughout (format): binding

Assay [1] concerns the target T1, scanMAX Kinase assay panel (Homo sapiens, UniProt Q86YV6).
T1 construct: purchased DiscoverX
T1 sequence (Q86YV6 1-388): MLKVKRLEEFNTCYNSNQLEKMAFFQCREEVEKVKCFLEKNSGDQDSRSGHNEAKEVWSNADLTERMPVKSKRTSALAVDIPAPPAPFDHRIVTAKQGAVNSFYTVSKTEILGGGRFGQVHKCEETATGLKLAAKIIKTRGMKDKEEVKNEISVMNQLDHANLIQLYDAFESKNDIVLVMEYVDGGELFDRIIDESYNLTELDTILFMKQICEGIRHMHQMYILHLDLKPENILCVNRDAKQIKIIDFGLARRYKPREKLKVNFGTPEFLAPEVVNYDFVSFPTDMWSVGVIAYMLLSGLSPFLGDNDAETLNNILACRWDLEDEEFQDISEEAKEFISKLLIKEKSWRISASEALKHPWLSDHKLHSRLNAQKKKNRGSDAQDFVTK
To be noted: MYLK4; 1 uM; read-out: Percent Control (%). In outline:
(§1)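 Each kinase was first exposed to the test compound at 1 uM in DMSO. Signal was then normalised to positive and negative controls to give % control. Finally, any enzyme showing <35% control was judged inhibited.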

The target in assay [2] is T2, scanMAX Kinase assay panel (Homo sapiens, UniProt Q13233).
T2 construct: purchased DiscoverX
The settings on record: MAP3K1; 1 uM; read-out: Percent Control (%). In outline:
as §1

The target of assay [3] is T3, scanMAX Kinase assay panel (Homo sapiens, UniProt P08581, Y1235D).
T3 construct: purchased DiscoverX
The settings on record: MET (Y1235D); 1 uM; read-out: Percent Control (%). In outline: as §1

The target in assay [4] is T4, scanMAX Kinase assay panel (Homo sapiens, UniProt P78356).
T4 construct: purchased DiscoverX
T4 sequence (P78356 1-416): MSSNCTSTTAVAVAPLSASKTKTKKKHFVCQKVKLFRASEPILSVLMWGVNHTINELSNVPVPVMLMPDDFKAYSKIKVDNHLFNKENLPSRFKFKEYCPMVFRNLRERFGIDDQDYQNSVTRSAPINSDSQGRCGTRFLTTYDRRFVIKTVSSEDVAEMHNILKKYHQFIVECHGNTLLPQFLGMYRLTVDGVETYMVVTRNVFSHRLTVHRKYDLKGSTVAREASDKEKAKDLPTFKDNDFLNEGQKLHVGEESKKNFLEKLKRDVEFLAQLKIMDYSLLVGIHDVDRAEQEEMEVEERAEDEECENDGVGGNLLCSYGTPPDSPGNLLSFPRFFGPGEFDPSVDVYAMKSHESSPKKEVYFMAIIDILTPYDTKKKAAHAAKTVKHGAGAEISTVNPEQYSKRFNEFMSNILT
The settings on record: PIP5K2B; 1 uM; read-out: Percent Control (%). In outline: as §1

For assay [5], the target named is T5, scanMAX Kinase assay panel (Homo sapiens, UniProt Q2M2I8).
T5 construct: purchased DiscoverX
To be noted: AAK1; 1 uM; read-out: Percent Control (%). In outline: as §1

The target in assay [6] is T6, scanMAX Kinase assay panel (Homo sapiens, UniProt Q00536).
T6 construct: purchased DiscoverX
To be noted: PCTK1; 1 uM; read-out: Percent Control (%). In outline: as §1

Assay [7] deals with T7, scanMAX Kinase assay panel (Homo sapiens, UniProt P07949, V804L).
T7 construct: purchased DiscoverX
To be noted: RET (V804L); 1 uM; read-out: Percent Control (%). Put shortly:
as §1

The target in assay [8] is T8, scanMAX Kinase assay panel (Homo sapiens, UniProt P00519, F317L).
T8 construct: purchased DiscoverX
The settings on record: 1 uM, read-out: Percent Control (%). In outline:
as §1

Assay [9] concerns the target T9, scanMAX Kinase assay panel (Homo sapiens, UniProt P35590).
T9 construct: purchased DiscoverX
The settings on record: TIE1; 1 uM; read-out: Percent Control (%). Put shortly:
as §1

Assay [10] deals with T10, scanMAX Kinase assay panel (Homo sapiens, UniProt P31751).
T10 construct: purchased DiscoverX
To be noted: AKT2; 1 uM; read-out: Percent Control (%). In outline: as §1

Assay [11] concerns the target T11, scanMAX Kinase assay panel (Homo sapiens, UniProt Q8TDX7).
T11 construct: purchased DiscoverX
The settings on record: NEK7; 1 uM; read-out: Percent Control (%). Put shortly: as §1

Assay [12] addresses T12, scanMAX Kinase assay panel (Homo sapiens, UniProt O15146).
T12 construct: purchased DiscoverX
T12 sequence (O15146 24-869): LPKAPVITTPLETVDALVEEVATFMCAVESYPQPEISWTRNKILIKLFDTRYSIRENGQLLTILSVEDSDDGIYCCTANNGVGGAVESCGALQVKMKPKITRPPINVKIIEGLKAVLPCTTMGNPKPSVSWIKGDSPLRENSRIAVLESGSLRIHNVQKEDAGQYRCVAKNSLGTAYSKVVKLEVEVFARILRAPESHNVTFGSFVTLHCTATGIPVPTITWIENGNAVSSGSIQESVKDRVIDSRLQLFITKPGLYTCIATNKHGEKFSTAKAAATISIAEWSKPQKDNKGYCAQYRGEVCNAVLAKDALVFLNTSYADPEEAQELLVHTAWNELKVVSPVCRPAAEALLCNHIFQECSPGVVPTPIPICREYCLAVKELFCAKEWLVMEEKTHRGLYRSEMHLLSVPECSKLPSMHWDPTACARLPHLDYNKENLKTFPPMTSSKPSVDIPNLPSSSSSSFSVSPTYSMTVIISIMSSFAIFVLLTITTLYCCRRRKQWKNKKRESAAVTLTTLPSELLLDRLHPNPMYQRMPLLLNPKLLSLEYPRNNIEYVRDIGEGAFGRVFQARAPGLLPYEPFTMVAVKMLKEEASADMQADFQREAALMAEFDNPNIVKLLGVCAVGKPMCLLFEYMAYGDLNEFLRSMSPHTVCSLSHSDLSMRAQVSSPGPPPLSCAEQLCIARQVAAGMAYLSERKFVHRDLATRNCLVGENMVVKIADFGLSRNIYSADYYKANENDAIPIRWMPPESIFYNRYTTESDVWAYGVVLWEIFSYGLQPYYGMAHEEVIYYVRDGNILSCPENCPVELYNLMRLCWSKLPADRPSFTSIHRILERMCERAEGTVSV
To be noted: MUSK; 1 uM; read-out: Percent Control (%). In outline: as §1

T5 sequence (Q2M2I8 whole entry): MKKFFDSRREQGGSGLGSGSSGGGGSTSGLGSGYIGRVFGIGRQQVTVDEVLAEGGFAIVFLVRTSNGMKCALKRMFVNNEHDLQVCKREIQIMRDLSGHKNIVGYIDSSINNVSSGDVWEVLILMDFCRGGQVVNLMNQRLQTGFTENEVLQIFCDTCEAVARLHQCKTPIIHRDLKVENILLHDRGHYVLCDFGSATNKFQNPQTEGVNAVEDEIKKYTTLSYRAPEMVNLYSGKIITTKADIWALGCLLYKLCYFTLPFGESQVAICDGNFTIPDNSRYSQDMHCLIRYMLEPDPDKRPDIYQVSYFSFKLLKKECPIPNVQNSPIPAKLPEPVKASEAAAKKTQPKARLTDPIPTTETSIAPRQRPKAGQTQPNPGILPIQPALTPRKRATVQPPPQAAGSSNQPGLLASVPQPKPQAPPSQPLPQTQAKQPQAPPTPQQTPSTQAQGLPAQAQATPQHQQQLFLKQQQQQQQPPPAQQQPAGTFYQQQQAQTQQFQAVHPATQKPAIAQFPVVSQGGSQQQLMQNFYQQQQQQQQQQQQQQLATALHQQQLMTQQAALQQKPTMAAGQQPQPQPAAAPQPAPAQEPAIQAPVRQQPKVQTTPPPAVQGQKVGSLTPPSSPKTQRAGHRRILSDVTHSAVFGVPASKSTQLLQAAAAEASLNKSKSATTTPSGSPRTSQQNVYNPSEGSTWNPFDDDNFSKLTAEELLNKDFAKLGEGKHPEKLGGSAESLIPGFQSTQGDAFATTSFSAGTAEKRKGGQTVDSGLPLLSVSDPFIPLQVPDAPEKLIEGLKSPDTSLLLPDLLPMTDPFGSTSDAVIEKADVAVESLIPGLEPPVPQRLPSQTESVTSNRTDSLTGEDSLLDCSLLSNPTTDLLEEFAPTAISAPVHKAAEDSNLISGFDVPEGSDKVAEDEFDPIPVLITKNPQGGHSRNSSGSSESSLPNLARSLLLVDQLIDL
T7 sequence (P07949 29-1114 V804L): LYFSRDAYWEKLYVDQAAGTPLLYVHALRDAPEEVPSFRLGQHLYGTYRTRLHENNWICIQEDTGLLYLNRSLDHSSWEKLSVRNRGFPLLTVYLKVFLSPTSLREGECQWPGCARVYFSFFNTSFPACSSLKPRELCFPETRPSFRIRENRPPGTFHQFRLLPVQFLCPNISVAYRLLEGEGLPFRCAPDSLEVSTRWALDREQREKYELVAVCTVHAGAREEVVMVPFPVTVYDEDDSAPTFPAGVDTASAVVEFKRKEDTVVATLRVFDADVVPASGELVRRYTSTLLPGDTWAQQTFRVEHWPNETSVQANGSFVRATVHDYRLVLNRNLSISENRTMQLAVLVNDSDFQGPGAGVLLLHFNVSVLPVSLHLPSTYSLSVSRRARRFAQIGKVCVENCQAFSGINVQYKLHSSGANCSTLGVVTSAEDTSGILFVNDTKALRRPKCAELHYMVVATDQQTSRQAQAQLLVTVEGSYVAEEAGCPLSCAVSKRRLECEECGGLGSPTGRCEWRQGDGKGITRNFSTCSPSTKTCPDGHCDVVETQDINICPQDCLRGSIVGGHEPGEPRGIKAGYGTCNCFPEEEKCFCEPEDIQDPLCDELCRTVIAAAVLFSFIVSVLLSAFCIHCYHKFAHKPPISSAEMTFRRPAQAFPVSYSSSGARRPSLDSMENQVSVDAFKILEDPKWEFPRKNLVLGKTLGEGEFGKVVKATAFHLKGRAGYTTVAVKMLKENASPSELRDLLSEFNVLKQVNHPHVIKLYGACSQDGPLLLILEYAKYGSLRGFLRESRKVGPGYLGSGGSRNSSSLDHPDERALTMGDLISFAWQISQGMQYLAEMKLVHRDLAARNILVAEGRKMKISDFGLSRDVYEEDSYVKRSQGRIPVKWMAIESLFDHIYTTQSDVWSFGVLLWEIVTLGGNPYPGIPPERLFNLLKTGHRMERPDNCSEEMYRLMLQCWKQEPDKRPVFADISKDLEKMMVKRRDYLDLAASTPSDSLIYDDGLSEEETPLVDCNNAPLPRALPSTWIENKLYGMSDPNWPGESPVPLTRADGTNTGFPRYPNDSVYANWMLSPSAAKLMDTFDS
T8 sequence (P00519 whole entry F317L): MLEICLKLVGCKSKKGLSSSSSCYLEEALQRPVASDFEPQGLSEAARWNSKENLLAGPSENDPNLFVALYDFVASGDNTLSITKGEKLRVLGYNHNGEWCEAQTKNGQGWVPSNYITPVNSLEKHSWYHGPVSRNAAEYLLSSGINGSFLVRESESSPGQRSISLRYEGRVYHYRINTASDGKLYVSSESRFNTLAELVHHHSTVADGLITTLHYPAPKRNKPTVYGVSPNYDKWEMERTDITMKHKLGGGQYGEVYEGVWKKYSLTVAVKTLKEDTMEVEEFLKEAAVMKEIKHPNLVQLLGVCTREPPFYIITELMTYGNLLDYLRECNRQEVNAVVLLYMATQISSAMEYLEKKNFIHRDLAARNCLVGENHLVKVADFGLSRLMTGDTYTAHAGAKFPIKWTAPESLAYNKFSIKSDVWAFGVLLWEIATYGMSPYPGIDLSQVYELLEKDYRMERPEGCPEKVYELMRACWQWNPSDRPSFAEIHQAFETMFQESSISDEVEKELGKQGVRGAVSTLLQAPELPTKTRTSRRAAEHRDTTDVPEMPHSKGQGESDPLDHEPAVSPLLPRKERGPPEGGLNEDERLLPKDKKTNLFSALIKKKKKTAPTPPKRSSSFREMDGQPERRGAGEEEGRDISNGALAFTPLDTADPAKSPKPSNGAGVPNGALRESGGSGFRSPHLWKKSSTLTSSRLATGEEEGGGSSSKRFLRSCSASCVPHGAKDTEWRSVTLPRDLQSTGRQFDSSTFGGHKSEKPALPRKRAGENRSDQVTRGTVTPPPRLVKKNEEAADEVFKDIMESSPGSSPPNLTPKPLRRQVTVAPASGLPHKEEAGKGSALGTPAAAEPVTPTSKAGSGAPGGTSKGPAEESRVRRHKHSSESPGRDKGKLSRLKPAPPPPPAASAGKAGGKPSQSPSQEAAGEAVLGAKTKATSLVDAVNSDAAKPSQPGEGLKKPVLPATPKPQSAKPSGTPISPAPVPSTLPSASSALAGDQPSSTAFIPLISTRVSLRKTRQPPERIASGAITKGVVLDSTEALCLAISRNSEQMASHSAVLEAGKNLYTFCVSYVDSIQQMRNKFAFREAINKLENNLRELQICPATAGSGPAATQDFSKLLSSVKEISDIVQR
T2 sequence (Q13233 whole entry): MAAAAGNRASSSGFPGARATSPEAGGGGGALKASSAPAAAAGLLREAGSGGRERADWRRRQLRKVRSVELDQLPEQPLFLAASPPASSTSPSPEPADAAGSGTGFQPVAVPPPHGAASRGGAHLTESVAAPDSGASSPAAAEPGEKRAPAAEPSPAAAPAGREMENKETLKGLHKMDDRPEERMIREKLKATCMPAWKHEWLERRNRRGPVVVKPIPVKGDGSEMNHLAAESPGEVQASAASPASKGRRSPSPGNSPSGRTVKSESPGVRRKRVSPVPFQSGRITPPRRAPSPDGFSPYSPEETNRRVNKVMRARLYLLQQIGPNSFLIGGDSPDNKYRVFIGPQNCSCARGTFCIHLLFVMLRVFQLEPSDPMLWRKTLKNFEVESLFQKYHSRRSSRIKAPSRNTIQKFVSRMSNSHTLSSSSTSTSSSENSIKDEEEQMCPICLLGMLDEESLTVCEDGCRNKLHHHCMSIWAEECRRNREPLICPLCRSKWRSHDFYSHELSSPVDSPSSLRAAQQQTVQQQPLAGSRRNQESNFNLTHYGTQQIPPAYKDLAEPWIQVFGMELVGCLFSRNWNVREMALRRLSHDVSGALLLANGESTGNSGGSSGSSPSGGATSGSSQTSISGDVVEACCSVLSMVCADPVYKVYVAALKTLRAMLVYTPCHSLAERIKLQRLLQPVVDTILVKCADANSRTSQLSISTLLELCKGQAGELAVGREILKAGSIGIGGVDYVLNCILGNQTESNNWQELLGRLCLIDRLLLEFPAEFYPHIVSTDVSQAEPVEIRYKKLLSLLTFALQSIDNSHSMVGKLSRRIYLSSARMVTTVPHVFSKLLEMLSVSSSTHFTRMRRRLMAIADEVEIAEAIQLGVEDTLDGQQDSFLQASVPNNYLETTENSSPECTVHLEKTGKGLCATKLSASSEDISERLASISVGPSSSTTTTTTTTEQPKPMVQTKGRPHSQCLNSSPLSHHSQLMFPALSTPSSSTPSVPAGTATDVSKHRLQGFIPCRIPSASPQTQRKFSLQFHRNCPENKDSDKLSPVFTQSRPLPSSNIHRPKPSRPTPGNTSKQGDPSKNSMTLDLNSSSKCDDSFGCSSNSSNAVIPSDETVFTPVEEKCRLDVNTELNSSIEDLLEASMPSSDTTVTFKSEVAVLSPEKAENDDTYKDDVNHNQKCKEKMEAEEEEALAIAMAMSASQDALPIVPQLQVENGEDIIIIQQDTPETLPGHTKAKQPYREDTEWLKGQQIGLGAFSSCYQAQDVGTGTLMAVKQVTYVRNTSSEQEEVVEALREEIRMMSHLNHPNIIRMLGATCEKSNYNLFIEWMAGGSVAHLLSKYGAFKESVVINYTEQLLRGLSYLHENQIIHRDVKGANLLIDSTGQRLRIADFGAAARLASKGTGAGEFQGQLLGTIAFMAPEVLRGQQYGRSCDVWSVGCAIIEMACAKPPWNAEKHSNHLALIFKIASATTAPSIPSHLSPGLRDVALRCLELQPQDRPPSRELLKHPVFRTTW
T11 sequence (Q8TDX7 whole entry): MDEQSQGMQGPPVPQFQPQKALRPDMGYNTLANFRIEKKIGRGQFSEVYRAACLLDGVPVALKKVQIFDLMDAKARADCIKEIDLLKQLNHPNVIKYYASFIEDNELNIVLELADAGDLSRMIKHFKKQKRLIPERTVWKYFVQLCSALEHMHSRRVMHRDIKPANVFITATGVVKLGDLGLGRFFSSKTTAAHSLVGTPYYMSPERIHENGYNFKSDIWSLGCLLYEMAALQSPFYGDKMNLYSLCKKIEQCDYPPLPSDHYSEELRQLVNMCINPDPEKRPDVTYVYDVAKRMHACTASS

Take `Cc1ccc(C(=O)Nc2ccc(CN3CCN(C)CC3)c(C(F)(F)F)c2)cc1C#Cc1cnc2c(Nc3cnn(C)c3)cccn12` [Example 1, 4-methyl-3-((8-((1-methyl-1H-pyrazol-4-yl)amino)imidazo[1,2-a]pyridin-3-yl)ethynyl)-N-(4-((4-methylpiperazin-1-yl)methyl)-3-(trifluoromethyl)phenyl)benzamide]: the remaining binding at 1 µM in assay [1] was 86%; in [2], 44%; in assay [3], 61%; in assay [4], 82%; in assay [5], 64%; in assay [6], 93%. The remaining binding at 1 µM was 0% in assay [7]; 9% in [8] (ABL1 (F317L)-nonphosphorylated); 2% in assay [8] (ABL1 (F317L)-phosphorylated); 2% in assay [9]; 37% in assay [10]; 71% in [11]. Also, the remaining binding at 1 µM in assay [12] is 1%.

On to `Cc1ccc(NC(=O)C2(C(=O)Nc3ccc(F)cc3)CC2)cc1C#Cc1cnc2c(Nc3cnn(C(C)C)c3)cccn12` [Example 78], for which the remaining binding at 1 µM was determined as 100% in [1]; 94% in [2]; 82% in assay [3]; 79% in [4]; 100% in [5]; 100% in assay [6]. The remaining binding at 1 µM in assay [7] came to 100%; in [8] (ABL1 (F317L)-nonphosphorylated) it was 16%; in assay [8] (ABL1 (F317L)-phosphorylated), 85%; in [9], 27%; in [10] it was 99%; in assay [11] it was 100%. Besides, in [12], the remaining binding at 1 µM was found to be 63%.

Consider `Cc1cn(-c2cc(NC(=O)c3ccc(C)c(C#Cc4cnc5c(Nc6cnn(C)c6)cccn45)c3)cc(C(F)(F)F)c2)cn1` [Example 12, 4-methyl-N-(3-(4-methyl-1H-imidazol-1-yl)-5-(trifluoromethyl)phenyl)-3-((8-((1-methyl-1H-pyrazol-4-yl)amino)imidazo[1,2-a]pyridin-3-yl)ethynyl)benzamide], for which the remaining binding at 1 µM was 92% in assay [1]; 67% in assay [2]; 59% in [3]; 100% in assay [4]; 85% in [5]; 100% in assay [6]. The remaining binding at 1 µM stood at 2% in assay [7]; 3% in assay [8] (ABL1 (F317L)-nonphosphorylated); 6% in assay [8] (ABL1 (F317L)-phosphorylated); 26% in assay [9]; 82% in [10]; 82% in assay [11]. Further, the remaining binding at 1 µM in assay [12] worked out at 21%.
